Source: patent publication US20130040291A1, “Detection and Quantification of Cellular Stress Response Resolution Pathway Expression and Functionality and the Effects of Agents or Conditions Thereupon” (priority 2011, published 2013)

System: CDNR4 cells
Test: Observation of cells during the adaptive response period after the initial exposure
Assay type: cell-based, murine
Settings: ENU 20 micrograms/ml 1 hour; resolved after 10 to 12 days
Protocol: The murine mammary epithelial cells designated CDNR4 were grown in their preferred growth medium (42% DMEM, 42% Hams F-12, 12% FBS, 1% 100×L-glutamine, 1% pen-strep, 0.5% to 1% bovine pituitary extract) until approximately 6 million cells were available. Cells were removed from the expansion flasks, counted, and replated at a rate of 500,000 cells per […] flask in growth medium. The flasks were assigned randomly to one of two groups: a vehicle-alone exposure (control group); an ENU-exposure (treated) group. For flasks of ENU-exposed cells, ENT was added to the growth medium to achieve a final concentration of 20 micrograms per milliliter. For group 1 flasks, a volume of growth medium equal to the volume of ENU was added to the flasks. The cells were exposed to this solution for 1 hour at 37° C.; at the end of this time the solution was removed, the cells were washed with PBS at 37° C., and the cells were re-fed with fresh growth medium.
This drop in pH recurred within six to 12 hours after re-feeding the cells with fresh growth medium. To reduce this problem, all cells (vehicle-exposed and ENU-exposed) were re-fed every day with medium that was buffered with HEPES at a concentration of 25 millimolar. […] This process of increased cell death among ENU-exposed cells resolved after approximately 10 to 12 days. […]

CCN(N=O)C(N)=O [ENU, ethylnitrosourea]
cell death among ENU-exposed flasks during adaptive response period: slight non-significant increase in cell death
